Data on four compounds can be found in ChEMBL document CHEMBL1201862, “PubChem BioAssay data set” (2004).

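Where inhibition never reached the appropriate level, the endpoint shown equals the highest concentration tested. Otherwise, values were interpolated linearly from a five-concentration, 48-hour dose response in 96-well plates. GI50 marks 50% less growth.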 The source made the active and inactive calls. No stated cut-off is given here; in the data, active = GI50 up to about 1.1 µM and inactive = higher.

Among the test systems are A498; A549; BT-549; COLO 205; EKVX; HCT-15; KM12; Malme-3M; NCI-H23; NCI-H460; NCI/ADR-RES; PC-3; RXF 393; SK-MEL-28; SN12C; SW-620; UACC-257; UACC-62; UO-31.
Common to all, as to test: NCI-60 cell line screen, 48 h

For the compound `COc1cccc(C2c3cc4c(cc3OC(NNC(N)=O)C2C)OCO4)c1O` (stereo unspecified), the GI50 with A498 was 0.83 µM (active); in the assay with A549, 1.92 µM (inactive); in the assay with BT-549 it was 33 µM (inactive); in the assay with COLO 205, 1.78 µM (inactive); in the assay with EKVX it was 8.26 µM (inactive); with HCT-15 it was 1.08 µM. Further, the GI50 with KM12 was 0.731 µM (active); in the assay on Malme-3M, 0.745 µM (active); with NCI-H23, 3.17 µM (inactive); with NCI-H460, 0.951 µM (active); in the assay with NCI/ADR-RES, 3.36 µM (inactive); in the assay on PC-3, 1.15 µM (inactive). In addition, the GI50 with RXF 393 is 0.766 µM (active); in the assay with SK-MEL-28 it was 1.99 µM (inactive); in the assay on SN12C, 2.65 µM (inactive); in the assay on SW-620 it was 0.569 µM (active); with UACC-257, 3.42 µM (inactive); with UACC-62 it was 2.54 µM (inactive). Also, the GI50 with UO-31 is 8.39 µM (inactive).
For `COc1ccc(O)c(/C=N/NC(=S)N2CCCCC2)c1`, the GI50 with A498 was 12.1 µM (inactive); in the assay on A549, 1.81 µM (inactive); with BT-549, 3.77 µM (inactive); in the assay on COLO 205, 2.98 µM (inactive); with EKVX it was 4.38 µM (inactive); with HCT-15 it was 0.611 µM. Moreover, the GI50 in the assay with KM12 is 4.38 µM (inactive); in the assay with Malme-3M it was 1.71 µM (inactive); in the assay with NCI-H23 it was 2.15 µM (inactive); with NCI-H460, 1.22 µM (inactive); in the assay with NCI/ADR-RES, 1.77 µM (inactive); with PC-3, 5 µM (inactive). The GI50 is 7.73 µM (inactive) in the assay with RXF 393; 3.17 µM (inactive) in the assay on SK-MEL-28; 4.92 µM (inactive) with SN12C; 2.88 µM (inactive) in the assay on SW-620; 6.04 µM (inactive) in the assay with UACC-257; 2.54 µM (inactive) with UACC-62. For the same compound, the GI50 in the assay on UO-31 was 0.746 µM (active).
For `COC(=O)/C=C/c1ccccc1N=[S@](C)(=O)c1ccc(C)cc1`, the GI50 is 8.41 µM (inactive) in the assay on A498; 27.9 µM (inactive) with A549; 33 µM (inactive) with BT-549; 8.34 µM (inactive) in the assay with COLO 205; 37.4 µM (inactive) in the assay with EKVX; 6.14 µM with HCT-15. For the same compound, the GI50 is 8.53 µM (inactive) in the assay with KM12; 14 µM (inactive) with Malme-3M; 28.1 µM (inactive) in the assay on NCI-H23; 18.4 µM (inactive) with NCI-H460; 7.13 µM (inactive) in the assay with NCI/ADR-RES; 13.4 µM (inactive) in the assay on PC-3. Further, the GI50 was 13.2 µM (inactive) with RXF 393; 16.4 µM (inactive) with SK-MEL-28; 34.9 µM (inactive) in the assay with SN12C; 8.89 µM (inactive) with SW-620; 8.85 µM (inactive) in the assay with UACC-257; 8.24 µM (inactive) in the assay on UACC-62. Moreover, the GI50 in the assay on UO-31 is 50.4 µM (inactive).
Consider `CC(=O)NC1=C(C)C(=O)c2c(nc3n2CC[C@H]3OC(C)=O)C1=O`, for which the GI50 is 16.8 µM (inactive) with A498; 8.32 µM (inactive) in the assay on A549; 1.59 µM (inactive) with BT-549; 1.91 µM (inactive) in the assay with COLO 205; 5.25 µM (inactive) with EKVX; 3.58 µM in the assay on HCT-15. In addition, the GI50 in the assay with KM12 is 1.71 µM (inactive); with Malme-3M it was 1.51 µM (inactive); in the assay on NCI-H23 it was 2.61 µM (inactive); in the assay with NCI-H460 it was 2.95 µM (inactive); in the assay on NCI/ADR-RES it was 2.06 µM (inactive); in the assay with PC-3, 0.637 µM (active). The GI50 was 1.73 µM (inactive) in the assay with RXF 393; 2.22 µM (inactive) in the assay with SK-MEL-28; 1.49 µM (inactive) in the assay with SN12C; 1.53 µM (inactive) in the assay with SW-620; 1.01 µM (active) with UACC-257; 1.69 µM (inactive) in the assay on UACC-62. The GI50 with UO-31 is 3.01 µM (inactive).
